Patent US20090176817A1, “Method of Treatment of Diarrhea-Predominant Irritable Bowel Syndrome in a Subject” (priority 2005, published 2009)

Tested on: diarrhea-predominant IBS subjects
Experiment: Study S241.3.009: weekly diary questions on adequate relief
Assay type: in vivo, human
Conditions: for Overall responder rate, IBS symptoms / Overall responder rate, abdominal pain/discomfort / Overall responder rate, abnormal bowel habits: 26 weeks
Experimental: Study S241.3.009 was a Phase III, a double-blind, placebo-controlled, randomized, multinational study to investigate the safety and efficacy of 2 mg TID of cilansetron over 26 weeks in diarrhea-predominant IBS subjects. The study was conducted in 146 multinational study centers. A total of 1307 subjects consented to participate, and 806 subjects were randomized. A total of 792 subjects were analyzed for efficacy and 799 subjects were analyzed for safety. Diagnosis and main criteria for inclusion were IBS subjects satisfying the Rome I criteria (1992); the diarrhea-predominant sub-population of the Rome II criteria; and a minimum abdominal pain/discomfort, stool frequency and consistency determined during the run-in period. Subjects were treated with cilansetron 2 mg tablets given orally TID or matching placebo tablets given orally TID for 26 weeks.
The primary efficacy parameter was the overall response rate for IBS symptoms, based on the weekly question concerning adequate relief of IBS symptoms (abdominal pain/discomfort, abnormal bowel habits) over the 26 weeks period. A responder was a subject who responded “yes” at least 50% of the time during his/her treatment period, with minimum treatment duration of four weeks. The two main secondary efficacy parameters were overall responder rate based on the weekly question on adequate relief of abdominal pain/discomfort and abnormal bowel habits during the 26-week treatment period. The onset of action of cilansetron was also examined using daily diary data (stool frequency, and ratings of urgency and severity) during the initial 8 weeks of trial participation. An additional key secondary efficacy parameter was the number of months (one month equals four weeks) up to six months (24-weeks) that a subject was a responder for IBS symptoms, where a responder was defined as a subject who answered the weekly question with “yes” at least twice for that month. The responder rate for the weekly diary questions on adequate relief at each month and all months, the adequate relief rate, the number of subjects with adequate relief by week, daily diary questions, IBS-QOL scores, and the interruption of activities were also assessed. Safety was evaluated by physical examination, ECG, vital signs, laboratory evaluations, concomitant medications, and AEs.
Studies S24 1.3.OO6, S24 1.3.0 1 1, and S24 1.3.009 used the following efficacy measurements: • The subjects answered the following three questions with “yes” or “no” using a phone diary at the end of each week: • a) During the last week, did you experience adequate relief of your IBS symptoms, such as abdominal pain, abdominal discomfort, abnormal bowel habits? • b) During the last week, did you experience adequate relief of your abdominal pain and/or discomfort? • c) During the last week, did you experience adequate relief of your abnormal bowel habits? • The subjects rated the following symptoms using the phone diary at the end of each day: • abdominal pain/discomfort (five-point scale); • stool consistency (seven-point Bristol Stool Scale); • stool frequency (number of bowel movements each day); • urgency (five-point scale); • straining (yes or no); • feeling of incomplete defecation (yes or no); • bloating or feeling of abdominal distension (five-point scale). • In Studies S241 A006 and S241.3.009, subjects completed the IBS-QOL Survey at Baseline (Day 1) and at the end of treatment. In Study S24 1.3.0 1 1, subjects completed the IBS-QOL Survey at Baseline (Day 1), at the end of the three-month treatment period, and at the end of rerandomized treatment.
In all three pivotal efficacy studies, the primary and main secondary efficacy parameters were based on the weekly diary questions on adequate relief and included the following: • 1. Number of months (one month equals four weeks) that a subject was a responder for the weekly diary questions on adequate relief. […]

[1] = 2 mg TID, 26-week treatment period, observed case, ITT N = 395
[2] = 2 mg TID, Months 1 to 3, monthly LOCF, ITT N = 395
[3] = 2 mg TID, Months 1 to 3, observed case, ITT N = 395
[4] = 2 mg TID, Months 1 to 6, monthly LOCF, ITT N = 395
[5] = Baseline BMI: <30 kg/m^2, 26-week treatment period, observed case, ITT, 2 mg TID
[6] = Baseline BMI: <30 kg/m^2, Months 1 to 3, monthly LOCF, ITT, 2 mg TID

Cc1nccn1C[C@H]1CCc2c(c3cccc4c3n2CCC4)C1=O [Cilansetron, (R)-(−)-4,5,6,8,9,10-hexahydro-10-[(2-methyl-1H-imidazol-1-yl)methyl]-11H-pyrido-[3,2,1-jk]-carbazol-11-one]
Overall responder rate, adequate relief of IBS symptoms [1]: 234 (59) n (%) | Overall responder rate, adequate relief of abdominal pain/discomfort [1]: 239 (61) n (%) | Overall responder rate, adequate relief of abnormal bowel habits [1]: 253 (64) n (%) | Subjects who were responders for One month, Abdominal pain/discomfort [2]: 61 (15) n (%) | Subjects who were responders for One month, Abnormal bowel habits [2]: 49 (12) n (%) | Subjects who were responders for One month, IBS symptoms [2]: 55 (14) n (%) | Subjects who were responders for Three months, Abdominal pain/discomfort [2]: 159 (40) n (%) | Subjects who were responders for Three months, Abnormal bowel habits [2]: 165 (42) n (%) | Subjects who were responders for Three months, IBS symptoms [2]: 150 (38) n (%) | Subjects who were responders for Two months, Abdominal pain/discomfort [2]: 70 (18) n (%) | Subjects who were responders for Two months, Abnormal bowel habits [2]: 83 (21) n (%) | Subjects who were responders for Two months, IBS symptoms [2]: 80 (20) n (%) | Subjects who were responders for Zero months, Abdominal pain/discomfort [2]: 105 (27) n (%) | Subjects who were responders for Zero months, Abnormal bowel habits [2]: 98 (25) n (%) | Subjects who were responders for Zero months, IBS symptoms [2]: 110 (28) n (%) | Overall responder rate, adequate relief of IBS symptoms [3]: 219 (55) n (%) | Overall responder rate, adequate relief of abdominal pain/discomfort [3]: 221 (56) n (%) | Overall responder rate, adequate relief of abnormal bowel habits [3]: 243 (62) n (%) | Subjects who were responders for Five months, Abdominal pain/discomfort [4]: 53 (13) n (%) | Subjects who were responders for Five months, Abnormal bowel habits [4]: 61 (15) n (%) | Subjects who were responders for Five months, IBS symptoms [4]: 58 (15) n (%) | Subjects who were responders for Four months, Abdominal pain/discomfort [4]: 41 (10) n (%) | Subjects who were responders for Four months, Abnormal bowel habits [4]: 41 (10) n (%) | Subjects who were responders for Four months, IBS symptoms [4]: 52 (13) n (%) | Subjects who were responders for One month, Abdominal pain/discomfort [4]: 26 (7) n (%) | Subjects who were responders for One month, Abnormal bowel habits [4]: 17 (4) n (%) | Subjects who were responders for One month, IBS symptoms [4]: 25 (6) n (%) | Subjects who were responders for Six months, Abdominal pain/discomfort [4]: 133 (34) n (%) | Subjects who were responders for Six months, Abnormal bowel habits [4]: 136 (34) n (%) | Subjects who were responders for Six months, IBS symptoms [4]: 121 (31) n (%) | Subjects who were responders for Three months, Abdominal pain/discomfort [4]: 31 (8) n (%) | Subjects who were responders for Three months, Abnormal bowel habits [4]: 33 (8) n (%) | Subjects who were responders for Three months, IBS symptoms [4]: 25 (6) n (%) | Subjects who were responders for Two months, Abdominal pain/discomfort [4]: 26 (7) n (%) | Subjects who were responders for Two months, Abnormal bowel habits [4]: 22 (6) n (%) | Subjects who were responders for Two months, IBS symptoms [4]: 24 (6) n (%) | Subjects who were responders for Zero months, Abdominal pain/discomfort [4]: 85 (22) n (%) | Subjects who were responders for Zero months, Abnormal bowel habits [4]: 85 (22) n (%) | Subjects who were responders for Zero months, IBS symptoms [4]: 90 (23) n (%) | Overall responder rate, IBS symptoms (females): 63% | Overall responder rate, abdominal pain/discomfort (females): 64% | Overall responder rate, abnormal bowel habits (females): 67% | Overall responder rate, IBS symptoms (males): 55% | Overall responder rate, abdominal pain/discomfort (males): 57% | Overall responder rate, abnormal bowel habits (males): 60% | Overall responder rate, abdominal pain/discomfort (observed case): 61% | Overall responder rate, abnormal bowel habits (observed case): 64% | Overall responder rate, IBS symptoms (observed case, ITT): 59% | Overall responder rate, IBS symptoms (weekly LOCF): 60% | Overall responder rate, abdominal pain/discomfort (weekly LOCF): 61% | Overall responder rate, abnormal bowel habits (weekly LOCF): 63% | Overall responder rate difference vs placebo across diary questions (BMI≧30 kg/m^2): −10% to −1 | Overall responder rate, adequate relief of IBS symptoms [5]: 207 (63) n (%) | Overall responder rate, adequate relief of abdominal pain/discomfort [5]: 207 (63) n (%) | Overall responder rate, adequate relief of abnormal bowel habits [5]: 220 (67) n (%) | Number of months a subject was a responder: One month (Abdominal pain/discomfort) [6]: 51 (15) n (%) | Number of months a subject was a responder: One month (Abnormal bowel habits) [6]: 39 (12) n (%) | Number of months a subject was a responder: One month (IBS symptoms) [6]: 49 (15) n (%) | Number of months a subject was a responder: Three months (Abdominal pain/discomfort) [6]: 139 (42) n (%) | Number of months a subject was a responder: Three months (Abnormal bowel habits) [6]: 144 (44) n (%)
